Source: ChEMBL document CHEMBL4715873, “A novel synthetic acanthoic acid analogues and their cytotoxic activity in cholangiocarcinoma cells” (Bioorg Med Chem, 2021)

Columns and labels:
[1] = Cytotoxicity against human KKU-214 cells assessed as growth inhibition incubated for 48 hrs by MTT assay; assay type: functional, cell-based, KKUM214; conditions: KKU-M214, 48 h
[2] = Cytotoxicity against human KKU-055 cells assessed as growth inhibition incubated for 48 hrs by MTT assay; assay type: functional, cell-based, KKUM055; conditions: KKU-M055, 48 h
[3] = Cytotoxicity against human KKU-213 cells assessed as growth inhibition incubated for 48 hrs by MTT assay; assay type: functional, cell-based, KKUM213; conditions: KKU-M213, 48 h
[4] = Cytotoxicity against human KKU-100 cells assessed as growth inhibition incubated for 48 hrs by MTT assay; assay type: functional, cell-based; conditions: KKU100, 48 h
[5] = Cytotoxicity against human PBMC assessed as growth inhibition incubated for 48 hrs by MTT assay
[6] = Potency index, ratio of acid IC50 to compound IC50 for cytotoxicity against human KKU-213 cells assessed as growth inhibition incubated for 48 hrs by MTT assay; assay type: functional, KKUM213

| Structure (SMILES) | IC50 [1] | IC50 [2] | IC50 [3] | IC50 [4] | IC50 [5] | Ratio IC50 [6] |
| --- | --- | --- | --- | --- | --- | --- |
| C=C[C@@]1(C)CC=C2[C@@H](CC[C@@H]3[C@](C)(C(=O)OCc4cn(Cc5ccc(C)cc5)nn4)CCC[C@@]23C)C1 | 39 µM | > 50 µM | 47 µM | > 50 µM | – | – |
| C#CCOC(=O)[C@]1(C)CCC[C@@]2(C)C3=CC[C@](C)(C=C)C[C@@H]3CC[C@H]12 | 34 µM | 37 µM | 31 µM | > 50 µM | 71 µM | – |
| C=C[C@@]1(C)CC=C2[C@@H](CC[C@@H]3[C@](C)(C(=O)OCc4cn(Cc5ccc(Br)cc5)nn4)CCC[C@@]23C)C1 | > 50 µM | > 50 µM | > 50 µM | > 50 µM | – | – |
| C=C[C@@]1(C)CC=C2[C@@H](CC[C@@H]3[C@](C)(C(=O)OCCCC)CCC[C@@]23C)C1 | > 50 µM | 49 µM | 37 µM | > 50 µM | – | – |
| C=C[C@@]1(C)CC=C2[C@@H](CC[C@@H]3[C@](C)(C(=O)OCc4ccc(Br)cc4)CCC[C@@]23C)C1 | 41 µM | > 50 µM | 41 µM | > 50 µM | – | – |
| C=C[C@@]1(C)CC=C2[C@@H](CC[C@@H]3[C@](C)(C(=O)OCc4ccc(Cl)cc4)CCC[C@@]23C)C1 | > 50 µM | > 50 µM | > 50 µM | > 50 µM | – | – |
| C=C[C@@]1(C)CC=C2[C@@H](CC[C@@H]3[C@](C)(C(=O)OCc4ccccc4F)CCC[C@@]23C)C1 | > 50 µM | 47 µM | 35 µM | > 50 µM | – | – |
| C=C[C@@]1(C)CC=C2[C@@H](CC[C@@H]3[C@](C)(C(=O)OCc4cn(Cc5ccc(OC)cc5)nn4)CCC[C@@]23C)C1 | > 50 µM | > 50 µM | > 50 µM | > 50 µM | – | – |
| C=C[C@@]1(C)CC=C2[C@@H](CC[C@@H]3[C@](C)(C(=O)OCc4cn(Cc5ccccc5F)nn4)CCC[C@@]23C)C1 | > 50 µM | > 50 µM | > 50 µM | > 50 µM | – | – |
| C=C[C@@]1(C)CC=C2[C@@H](CC[C@@H]3[C@](C)(C(=O)OCc4cn(Cc5ccc(Cl)cc5)nn4)CCC[C@@]23C)C1 | 39 µM | > 50 µM | > 50 µM | > 50 µM | – | – |
| C=C[C@@]1(C)CC=C2[C@@H](CC[C@@H]3[C@](C)(C(=O)OCc4ccc(C)cc4)CCC[C@@]23C)C1 | > 50 µM | > 50 µM | > 50 µM | > 50 µM | – | – |
| C=C[C@@]1(C)CC=C2[C@@H](CC[C@@H]3[C@](C)(C(=O)OCc4ccc(OC)cc4)CCC[C@@]23C)C1 | > 50 µM | > 50 µM | > 50 µM | > 50 µM | – | – |
| C=C[C@@]1(C)CC=C2[C@@H](CC[C@@H]3[C@](C)(C(=O)OCc4ccc([N+](=O)[O-])cc4)CCC[C@@]23C)C1 | > 50 µM | > 50 µM | > 50 µM | > 50 µM | – | – |
| C=C[C@@]1(C)CC=C2[C@@H](CC[C@@H]3[C@](C)(C(=O)OCc4ccc(F)cc4)CCC[C@@]23C)C1 | > 50 µM | > 50 µM | 38 µM | > 50 µM | – | – |
| C=C[C@@]1(C)CC=C2[C@@H](CC[C@@H]3[C@](C)(C(=O)OCc4cn(CCCCCCCC)nn4)CCC[C@@]23C)C1 | 38 µM | 48 µM | 37 µM | > 50 µM | – | – |
| C=CCOC(=O)[C@]1(C)CCC[C@@]2(C)C3=CC[C@](C)(C=C)C[C@@H]3CC[C@H]12 | > 50 µM | > 50 µM | > 50 µM | > 50 µM | – | – |
| C=C[C@@]1(C)CC=C2[C@@H](CC[C@@H]3[C@](C)(C(=O)OCc4cn(Cc5cccc(F)c5)nn4)CCC[C@@]23C)C1 | > 50 µM | > 50 µM | > 50 µM | > 50 µM | – | – |
| C=C[C@@]1(C)CC=C2[C@@H](CC[C@@H]3[C@](C)(C(=O)OCc4ccccc4)CCC[C@@]23C)C1 | > 50 µM | > 50 µM | > 50 µM | > 50 µM | – | – |
| C=C[C@@]1(C)CC=C2[C@@H](CC[C@@H]3[C@](C)(C(=O)OCc4cccc(F)c4)CCC[C@@]23C)C1 | > 50 µM | 41 µM | 28 µM | > 50 µM | 163 µM | – |
| C=C[C@@]1(C)CC=C2[C@@H](CC[C@@H]3[C@](C)(C(=O)OCCCCCCCC)CCC[C@@]23C)C1 | > 50 µM | > 50 µM | > 50 µM | > 50 µM | – | – |
| C=C[C@@]1(C)CC=C2[C@@H](CC[C@@H]3[C@](C)(C(=O)OCc4cn(Cc5ccc([N+](=O)[O-])cc5)nn4)CCC[C@@]23C)C1 | 21 µM | 33 µM | 18 µM | > 50 µM | > 200 µM | 8 |
| C=C[C@@]1(C)CC=C2[C@@H](CC[C@@H]3[C@](C)(C(=O)OCc4cn(Cc5ccc(F)cc5)nn4)CCC[C@@]23C)C1 | > 50 µM | > 50 µM | > 50 µM | > 50 µM | – | – |
| C=C[C@@]1(C)CC=C2[C@@H](CC[C@@H]3[C@](C)(C(=O)OCc4cn(Cc5ccccc5)nn4)CCC[C@@]23C)C1 | 41 µM | 47 µM | 40 µM | > 50 µM | – | – |
| C=C[C@@]1(C)CC=C2[C@@H](CC[C@@H]3[C@](C)(C(=O)O)CCC[C@@]23C)C1 | 168 µM | 120 µM | 149 µM | 174 µM | – | – |
| O=C(NC1=CC(=O)[C@H]2O[C@H]2[C@H]1O)c1ccccc1O [DEHYDROXYMETHYLEPOXYQUINOMICIN] | 19 µM | – | 19 µM | – | – | – |
